According to USRE30633E, “3-Lower alkylcarbamylsulfonamido-4-phenylaminopyridines, n-oxides, derivatives thereof and pharmaceutical compositions containing same” (A. Christiaens Societe Anonyme, priority 1974, dated 1981):

Assays:
[1] = system: rats; test: Pharmacological test for diuretic properties (urine volume); assay type: in vivo; settings: 50 mg/kg gastric gavage, 25 ml/kg saline s.c., urine collected 4 hours, ml/kg of body weight
Method: 2. Pharmacological tests for diuretic properties Lots of 3 rats weighting 250-300 g have been constituted at random, each of them being submitted to the same treatment. The compound to be tested was administered by .[.gastric gavage at a dose of 50 ml/kg as a solution or a.]. .Iadd.gastric gavage at a dose of 50 mg/kg as a solution or a .[…].suspension in water containing 0.45% of methylcellulose (which is an inert mucilaginous substance). Control animals received only distilled water as a placebo. At the same time, all the animals received 25 ml/kg of physiological saline by subcutaneous injection. The rats were then placed in metabolic cages, each cage containing 3 animals receiving the same treatment. The urines have been collected during 4 hours. […] The diuresis is expressed in ml/kg of body weight.

[2] = system: paw of rats; test: Pharmacological test for anti-inflammatory properties (carrageenan rat paw swelling); assay type: in vivo; settings: oral 1 hour before carrageenan (0.05 ml of 1%), swelling 4 hours after injection by plethysmography, dose not given
Method: 1. Pharmacological test for anti-inflammatory properties.
The compounds to be tested are given as freshly prepared solutions or suspensions by oral route 1 hour before injecting the paw of rats with carrageenan which is a known inflammatory agent.
The inflammatory agent (carrageenan) either in solution or suspension is then injected into the plantar tissue of the right hind paw of each rat, the left paw remaining untreated and serving as control. Each animal receives, for example, 0.05 ml of an aqueous solution containing 1% by weight of carrageenan and 0.9% of sodium chloride.
4 hours after the injection of the inflammatory agent, the importance of swelling is determined by plethysmography and is expressed as a percent of the volume of the control paw.
The anti-inflammatory effect expressed as a percentage of inhibition is obtained by comparison between rats treated with the anti-inflammatory compound and a control group of rats.

| Compound | Diuresis [1] [mL/kg] | % inhibition of acute oedema [2] [%] |
| --- | --- | --- |
| CNC(=O)NS(=O)(=O)c1cnccc1Nc1cccc(OC)c1 [JDL 493, 3-methylcarbamylsulfonamido-4-(3'-methoxy)-phenylaminopyridine] | 50.7 | 59.2 |
| CNC(=O)NS(=O)(=O)c1cnccc1Nc1cccc(C)c1 [JDL 494, 3-methylcarbamylsulfonamido-4-(3'-methyl)-phenylaminopyridine] | 75.9 | 85.6 |
| CNC(=O)NS(=O)(=O)c1cnccc1Nc1cccc(F)c1 [JDL 495, 3-methylcarbamylsulfonamido-4-(3'-fluoro)-phenylaminopyridine] | 76.3 | 66.2 |
| CNC(=O)NS(=O)(=O)c1cnccc1Nc1cccc(Br)c1 [JDL 496, 3-methylcarbamylsulfonamido-4-(3'-bromo)-phenylaminopyridine] | 72.1 | 70.4 |
| CNC(=O)NS(=O)(=O)c1cncc(C)c1Nc1cccc(Cl)c1 [JDL 501, 3-methylcarbamylsulfonamido-4-(3'-chloro)-phenylamino-5-methylpyridine] | 35.9 | 39.2 |
| Cc1cncc(S(=O)(=O)NC(=O)NC(C)C)c1Nc1cccc(Cl)c1 [JDL 503, 3-isopropylcarbamylsulfonamido-4-(3'-chloro)-phenylamino-5-methylpyridine] | 48.9 | 71.2 |
| CNC(=O)NS(=O)(=O)c1cnccc1Nc1cccc([N+](=O)[O-])c1 [JDL 504, 3-methylcarbamylsulfonamido-4-(3'-nitro)-phenylaminopyridine] | 17.2 | 43.0 |
| CC(C)NC(=O)NS(=O)(=O)c1cnccc1Nc1cccc([N+](=O)[O-])c1 [JDL 505, 3-isopropylcarbamylsulfonamido-4-(3'-nitro)-phenylaminopyridine] | 56.3 | 68.0 |
| CCNC(=O)NS(=O)(=O)c1cnccc1Nc1cccc(CC)c1 [JDL 511, 3-ethylcarbamylsulfonamido-4-(3'-ethyl)-phenylaminopyridine] | 66.4 | 72.0 |
| CCc1cccc(Nc2ccncc2S(=O)(=O)NC(=O)NC(C)C)c1 [JDL 512, 3-isopropylcarbamylsulfonamido-4-(3'-ethyl)-phenylaminopyridine] | 65.9 | 78.7 |
